According to patent US20240299382A1, “COMPOUNDS AND METHODS FOR DEGRADING RCOR1, LSD1, HDAC1 AND HDAC2 IN THE COREST” (University of Florida Research Foundation, Inc., priority 2021, published 2024):
“Also recorded” adds a separate entry of the source.

What was measured:
[1] = mice, 50 mg/kg orally; cited from earlier work
[2] = tested on: MDA-MB-231 and T47D cells; assay: Viability assay using CellTiter-Glo, four days; assay type: cell-based; settings: SR-4370 compared to UF010
Procedure: (§1) MDA-MB-231 and T47D cells were treated with the indicated compounds for four days (FIG. 5A). Viability assays were done using CellTiter-Glo. Shown are normalized values vs. vehicle±SEM (n=3). IC50 values are calculated using Prism 6. Note that SR-3460 has no HDACi activity. Cells were seeded and then continuously treated with SR-4370 or UF010 at the indicated concentrations for 15 days. Colonies were fixed and stained (FIG. 5B).

[3] = tested on: HDACs; assay: HDAC inhibition (HDACi activity); assay type: biochemical
[4] = target: T1, RCOR1 (Homo sapiens, UniProt Q9UKL0); assay: Western blotting of protein levels in MCF7 cells; assay type: cell-based; settings: for degradation of RCOR1: 10 μM, 6 hours, Western blotting
T1 construct: Cells were then lysed and subjected to Western blotting with antibodies against the indicated proteins; endogenous in cells; host or cells: MCF7
Procedure: (§2) […] Cells were pretreated with the proteasomal inhibitor MG132 (MG, 3 μM) or the neddylation inhibitor MLN4924 (MLN, 1 μM) for 2 hours. Cells were then lysed and subjected to Western blotting with antibodies against the indicated proteins. The levels of RCOR1 were normalized against that of tubulin and shown as % of DMSO control.
(§3) Cells were pretreated with the proteasomal inhibitor MG132 (MG, 3 μM) or the neddylation inhibitor MLN4924 (MLN, 1 μM) for 2 hours. Cells were then lysed and subjected to Western blotting with antibodies against the indicated proteins. The levels of RCOR1 and LSD1 were normalized against that of tubulin and shown as % of DMSO control.

[5] = target: T2, LSD1 (Homo sapiens, UniProt O60341); assay: Western blotting of protein levels in MCF7 cells; assay type: cell-based; settings: for degradation of LSD1: 10 μM, 6 hours, Western blotting
T2 construct: Cells were then lysed and subjected to Western blotting with antibodies against the indicated proteins; endogenous in cells; host or cells: MCF7
Procedure: as §2, §3

[6] = target: T3, HDAC2 (Homo sapiens, UniProt Q92769); assay: Western blotting of protein levels in MCF7 cells; assay type: cell-based; settings: for degradation of HDAC2: 10 μM, 6 hours, Western blotting
T3 construct: endogenous in cells; host or cells: MCF7
Procedure: (§4) MCF7 cells were exposed to DMSO or the indicated compounds (10 μM) for 6 hours. Cells were pretreated with the proteasomal inhibitor MG132 (MG, 3 μM) or the neddylation inhibitor MLN4924 (MLN, 1 μM) for 2 hours. Cells were then lysed and subjected to Western blotting with antibodies against the indicated proteins. The levels of RCOR1 were normalized against that of tubulin and shown as % of DMSO control.
as §4, with “DMSO, SR-4370 and other compounds at” for “DMSO or”, “concentrations” for “compounds (10 μM)”, “14” for “6”, “RCOR1 and LSD1” for “RCOR1”

[7] = target: T4, HDAC1 (Homo sapiens, UniProt Q13547); assay: Western blotting of protein levels in MCF7 cells; assay type: cell-based; settings: for degradation of HDAC1: 10 μM, 6 hours, Western blotting
T4 construct: endogenous in cells; host or cells: MCF7
Procedure: as §4
as §4, with “DMSO, SR-4370 and other compounds at” for “DMSO or”, “concentrations” for “compounds (10 μM)”, “14” for “6”, “RCOR1 and LSD1” for “RCOR1”

[8] = tested on: BC cell lines; assay: Colony formation, continuous treatment for 15 days; assay type: cell-based; settings: continuous treatment 15 days, colonies; compared to UF010
Procedure: as §1

[9] = tested on: MDA-MB-231 xenograft tumors; orthotopic EMT6 and 4T1 mouse breast tumors; assay: In vivo efficacy in breast tumor models; settings: mice bearing MDA-MB-231 xenograft, EMT6 or 4T1 tumors
Procedure: Female athymic mice bearing the MDA-MB-231 xenograft tumors were dosed with vehicle or SR-4370 (FIG. 3A). Tumor volumes and final tumor weights are plotted (average±SD). *: p<0.05, **: p<0.01 (FIGS. 3B and 3C). Female BALB/c mice bearing the orthotopic EMT6 (FIG. 3B) and 4T1 (FIG. 3C) mouse breast tumors were dosed with SR-4370 as in (FIG. 3A). At the endpoint, tumors were removed from euthanized mice and weighed. The tumor weight plots are shown (average±SD). The p values were calculated based on t test.

[10] = Blood chemistry tests in tumor-bearing athymic mice
[11] = target: T5, HDAC8 (Homo sapiens, UniProt Q9BY41); assay: Western blotting of protein levels in MCF7 cells; assay type: cell-based; settings: 14 hours
T5 construct: endogenous in cells; host or cells: MCF7
T5 sequence (Q9BY41 1-377): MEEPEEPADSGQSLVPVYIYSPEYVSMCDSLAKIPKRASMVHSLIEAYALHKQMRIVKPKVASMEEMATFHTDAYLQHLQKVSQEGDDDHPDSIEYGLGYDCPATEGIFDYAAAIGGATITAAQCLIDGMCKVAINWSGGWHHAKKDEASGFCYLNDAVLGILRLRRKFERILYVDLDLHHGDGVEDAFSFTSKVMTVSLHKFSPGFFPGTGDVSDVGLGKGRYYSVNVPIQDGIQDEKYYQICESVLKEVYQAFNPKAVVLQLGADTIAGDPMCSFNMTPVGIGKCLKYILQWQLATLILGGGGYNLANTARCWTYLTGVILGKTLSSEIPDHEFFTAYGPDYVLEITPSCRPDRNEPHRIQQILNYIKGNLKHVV
Procedure: as §4, with “DMSO, SR-4370 and other compounds at” for “DMSO or”, “concentrations” for “compounds (10 μM)”, “14” for “6”, “RCOR1 and LSD1” for “RCOR1”

[12] = tested on: LSD2; assay: Western blotting of protein levels in MCF7 cells; assay type: cell-based; settings: 14 hours
Procedure: as §4, with “DMSO, SR-4370 and other compounds at” for “DMSO or”, “concentrations” for “compounds (10 μM)”, “14” for “6”, “RCOR1 and LSD1” for “RCOR1”

[13] = tested on: MTA2; assay: Western blotting of protein levels in MCF7 cells; assay type: cell-based; settings: 14 hours
Procedure: as §4, with “DMSO, SR-4370 and other compounds at” for “DMSO or”, “concentrations” for “compounds (10 μM)”, “14” for “6”, “RCOR1 and LSD1” for “RCOR1”

[14] = tested on: RCOR2; assay: Western blotting of protein levels in MCF7 cells; assay type: cell-based; settings: 14 hours
Procedure: as §4, with “DMSO, SR-4370 and other compounds at” for “DMSO or”, “concentrations” for “compounds (10 μM)”, “14” for “6”, “RCOR1 and LSD1” for “RCOR1”

[15] = tested on: RBBP4; assay: Western blotting of protein levels in MCF7 cells; assay type: cell-based; settings: 14 hours
Procedure: as §4, with “DMSO, SR-4370 and other compounds at” for “DMSO or”, “concentrations” for “compounds (10 μM)”, “14” for “6”, “RCOR1 and LSD1” for “RCOR1”

[16] = tested on: RCOR3; assay: Western blotting of protein levels in MCF7 cells; assay type: cell-based; settings: 14 hours
Procedure: as §4, with “DMSO, SR-4370 and other compounds at” for “DMSO or”, “concentrations” for “compounds (10 μM)”, “14” for “6”, “RCOR1 and LSD1” for “RCOR1”

[17] = target: T6, HDAC3 (Homo sapiens, UniProt O15379); assay: Western blotting of protein levels in MCF7 cells; assay type: cell-based; settings: 14 hours
T6 construct: endogenous in cells; host or cells: MCF7
Procedure: as §4, with “DMSO, SR-4370 and other compounds at” for “DMSO or”, “concentrations” for “compounds (10 μM)”, “14” for “6”, “RCOR1 and LSD1” for “RCOR1”

[18] = Tolerability and body weights of tumor-bearing mice dosed with SR-4370
Procedure: Female BALB/c mice bearing the EMT6 tumors were dosed with vehicle or SR-4370 (50 mg/kg) via intraperitoneal injection.
In vivo tolerability of UF010, the first identified compound of the benzoylhydrazide HDACi class, was evaluated in mice. […] We conducted pilot experiments to evaluate PK parameters of UF010. As with the MTD experiment, mice were dosed orally at 80 mg/kg. Plasma samples were collected at various time points and the amount of UF010 was determined.

[19] = MCF7 cells pretreated with MLN4924 (1 μM) or MG132 (3 μM) for 2 hours
[20] = MCF7 cells, indicated concentrations, 14 hours
[21] = tumor-bearing athymic mice, average ± SD, n = 6
[22] = tumor-bearing mice at the endpoint
[23] = indicated concentrations, 14 hours

T3 sequence (Q92769 whole entry): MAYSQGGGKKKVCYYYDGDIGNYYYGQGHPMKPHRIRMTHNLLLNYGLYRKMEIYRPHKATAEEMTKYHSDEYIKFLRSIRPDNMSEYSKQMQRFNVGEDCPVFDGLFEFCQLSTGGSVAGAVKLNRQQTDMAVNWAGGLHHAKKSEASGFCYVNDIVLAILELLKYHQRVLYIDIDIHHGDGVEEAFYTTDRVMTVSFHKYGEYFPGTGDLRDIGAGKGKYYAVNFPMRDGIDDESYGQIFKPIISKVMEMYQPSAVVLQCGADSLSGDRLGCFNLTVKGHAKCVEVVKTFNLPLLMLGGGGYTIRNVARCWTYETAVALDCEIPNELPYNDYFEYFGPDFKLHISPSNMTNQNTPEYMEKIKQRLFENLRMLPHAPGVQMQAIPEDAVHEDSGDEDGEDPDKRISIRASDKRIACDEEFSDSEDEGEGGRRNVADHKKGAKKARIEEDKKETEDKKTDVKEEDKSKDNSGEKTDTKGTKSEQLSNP
T1 sequence (Q9UKL0 whole entry): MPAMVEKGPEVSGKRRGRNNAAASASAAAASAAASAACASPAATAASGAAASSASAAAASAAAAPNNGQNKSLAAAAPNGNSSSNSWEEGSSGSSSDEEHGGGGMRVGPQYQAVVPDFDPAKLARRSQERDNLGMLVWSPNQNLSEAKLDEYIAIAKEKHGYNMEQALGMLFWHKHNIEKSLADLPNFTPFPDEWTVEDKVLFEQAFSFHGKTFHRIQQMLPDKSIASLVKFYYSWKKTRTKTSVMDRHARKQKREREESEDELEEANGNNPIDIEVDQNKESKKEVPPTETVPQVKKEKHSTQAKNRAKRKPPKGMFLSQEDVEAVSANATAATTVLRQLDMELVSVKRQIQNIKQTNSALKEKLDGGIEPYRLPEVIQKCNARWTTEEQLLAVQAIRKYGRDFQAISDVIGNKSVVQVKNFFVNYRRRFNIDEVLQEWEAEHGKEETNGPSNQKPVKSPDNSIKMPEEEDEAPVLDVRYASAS
T4 sequence (Q13547 whole entry): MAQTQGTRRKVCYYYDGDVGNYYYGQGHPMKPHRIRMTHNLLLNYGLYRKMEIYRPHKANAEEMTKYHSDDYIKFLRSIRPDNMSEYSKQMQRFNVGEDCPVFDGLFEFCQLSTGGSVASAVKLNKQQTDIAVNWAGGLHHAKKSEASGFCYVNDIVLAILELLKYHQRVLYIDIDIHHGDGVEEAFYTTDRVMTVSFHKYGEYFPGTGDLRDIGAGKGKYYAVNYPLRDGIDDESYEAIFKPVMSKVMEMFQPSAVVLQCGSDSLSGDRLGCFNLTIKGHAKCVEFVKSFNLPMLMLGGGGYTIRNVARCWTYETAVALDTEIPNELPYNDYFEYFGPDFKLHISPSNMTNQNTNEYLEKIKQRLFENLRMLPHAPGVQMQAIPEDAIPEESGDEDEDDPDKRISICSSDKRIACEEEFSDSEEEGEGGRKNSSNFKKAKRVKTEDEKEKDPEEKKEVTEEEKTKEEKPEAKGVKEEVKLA
T6 sequence (O15379 whole entry): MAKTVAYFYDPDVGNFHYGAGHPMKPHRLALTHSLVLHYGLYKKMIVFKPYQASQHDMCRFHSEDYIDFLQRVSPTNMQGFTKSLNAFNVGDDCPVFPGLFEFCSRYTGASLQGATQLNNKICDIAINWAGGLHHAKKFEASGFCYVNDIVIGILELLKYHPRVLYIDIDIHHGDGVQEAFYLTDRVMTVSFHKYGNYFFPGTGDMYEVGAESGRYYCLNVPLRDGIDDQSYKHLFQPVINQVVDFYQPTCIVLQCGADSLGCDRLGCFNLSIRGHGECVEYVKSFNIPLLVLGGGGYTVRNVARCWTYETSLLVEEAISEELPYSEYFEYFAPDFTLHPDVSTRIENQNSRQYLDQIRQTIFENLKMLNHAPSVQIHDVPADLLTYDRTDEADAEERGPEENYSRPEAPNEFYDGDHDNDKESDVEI

Question: With `Cc1ccc(NC(=O)CCCCCC(=O)Nc2ccccc2N)cc1` [4b] as the molecule, how does the AUC [1] read?
Answer: 1.08 µM·h

Question: What about the Cmax [1] of the same molecule?
Answer: 1130 nM

Question: And the T1/2 [1]?
Answer: 2.76 h

Question: And the Tmax [1]?
Answer: 0.25 h

Question: With `CCCCNNC(=O)c1ccccc1-c1ccccc1` [SR-3460] as the molecule, how does the “cytotoxic effects / BC cell growth, short-term treatment” value [2] read?
Answer: did not inhibit BC cell growth

Question: What about the HDACi activity [3] of the same molecule?
Answer: does not inhibit HDACs

Question: What does the source list for `CCCCNNC(=O)c1ccc(-c2ccccc2)cc1` [SR-3558]?
Answer: degradation of RCOR1 ([4]; MCF7 cells): can degrade; degradation of LSD1 ([5]; MCF7 cells): can degrade; degradation of HDAC2 [6]: can degrade; degradation of HDAC1 [7]: can degrade

Question: Which results are given for `CCCCNNC(=O)c1ccc(-c2cncnc2)cc1` [SR-4369]?
Answer: degradation of RCOR1 ([4]; MCF7 cells): can degrade; degradation of LSD1 ([5]; MCF7 cells): can degrade; degradation of HDAC2 [6]: can degrade; degradation of HDAC1 [7]: can degrade

Question: With `CCCCNNC(=O)c1ccc(-c2cccc(F)c2F)cc1` [SR-4370] as the molecule, how does the “downregulation of RCOR1 under neddylation or proteasome inhibition” value [4, 19] read?
Answer: completely reversed

Question: And the “degradation of RCOR1” value ([4]; MCF7 cells)?
Answer: can degrade

Question: And the DC50 ([4]; MCF7 cells, 14 hours, read-out: DC50 (concentration at which 50% of the target protein is degraded) for RCOR1)?
Answer: < 0.1 µM

Question: What about the RCOR1 protein level [4, 20] of the same molecule?
Answer: potent and dose-dependent degradation

Question: And the “downregulation of LSD1 under neddylation or proteasome inhibition” value [5, 19]?
Answer: completely reversed

Question: What about the “degradation of LSD1” value ([5]; MCF7 cells) of the same molecule?
Answer: can degrade

Question: What about the LSD1 protein level [5, 20] of the same molecule?
Answer: potent and dose-dependent degradation

Question: What about the “cytotoxic effects / BC cell growth, short-term treatment” value [2] of the same molecule?
Answer: more potent cytotoxic effects

Question: What about the “cytotoxic effects, long-term treatment” value [8] of the same molecule?
Answer: more potent cytotoxic effects

Question: What about the “anticancer effects in vivo (tumor volumes, tumor weights)” value [9] of the same molecule?
Answer: potent anticancer effects

Question: What about the ALP [10, 21] of the same molecule?
Answer: 49.5 (±8.78) U/L

Question: What about the ALT [10, 21] of the same molecule?
Answer: 71.60 (±14.06) U/L

Question: What about the BUN [10, 21] of the same molecule?
Answer: 22.0 (±3.16) mg/dL

Question: And the Calcium [10, 21]?
Answer: 8.45 (±0.85) mg/dL

Question: What about the Chloride [10, 21] of the same molecule?
Answer: 110.0 (±2.17) mmol/L

Question: What about the Cholesterol [10, 21] of the same molecule?
Answer: 113.0 (±15.92) mg/dL

Question: What about the Creatinine [10, 21] of the same molecule?
Answer: 0.1 (±0.044) mg/dL

Question: And the Glucose [10, 21]?
Answer: 221.17 (±60.6) mg/dL

Question: What about the Phosphorus [10, 21] of the same molecule?
Answer: 9.73 (±2.69) mg/dL

Question: And the Potassium [10, 21]?
Answer: 8.75 (±1.82) mmol/L

Question: What about the Sodium [10, 21] of the same molecule?
Answer: 147.33 (±1.51) mmol/L

Question: What about the Total bilirubin [10, 21] of the same molecule?
Answer: 0.25 (±0.054) mg/dL

Question: What about the Total protein [10, 21] of the same molecule?
Answer: 4.95 (±0.217) g/dL

Question: And the “liver or kidney toxicities” value [10, 22]?
Answer: no signs of liver or kidney toxicities

Question: And the “serum concentrations of various analytes versus reference ranges” value [10, 22]?
Answer: within reference ranges

Question: What about the HDAC8 protein level [11] of the same molecule?
Answer: did not affect

Question: And the LSD2 protein level [12]?
Answer: largely unaffected

Question: What about the MTA2 protein level [13] of the same molecule?
Answer: only moderately reduced at a higher concentration

Question: And the RCOR2 protein level [14]?
Answer: largely without affecting

Question: And the RBBP4 protein level [15]?
Answer: largely unaffected

Question: And the RCOR3 protein level [16]?
Answer: largely without affecting

Question: And the HDAC3 protein level [17]?
Answer: did not affect

Question: And the “degradation of HDAC2” value [6]?
Answer: can degrade

Question: And the HDAC2 protein level [6, 23]?
Answer: potent and dose-dependent degradation; also recorded: only moderately reduced at a higher concentration

Question: What about the “degradation of HDAC1” value [7] of the same molecule?
Answer: can degrade

Question: And the HDAC1 protein level [7, 23]?
Answer: potent and dose-dependent degradation; also recorded: only moderately reduced at a higher concentration

Question: And the tolerability ([18]; SR-4370 up to 50 mg/kg, mice, in vivo efficacy study)?
Answer: completely tolerated

Question: What about the “body weights during the treatment period” value ([18]; tumor-bearing mice, BALB/c mice with EMT6 tumors, 50 mg/kg intraperitoneal, 50 mg/kg) of the same molecule?
Answer: not affected; also recorded: safe as judged by body weights
